# How the values were obtained:
# Candida albicans = assay: Antimicrobial activity against Candida albicans after 2 days by serial dilution method; assay type: functional
# Human betaherpesvirus 5 [1] = assay: Antiviral activity against Human herpesvirus 5 Davis infected human HEL cells assessed as reduction in the virus plaque formation; assay type: functional, organism-based; conditions: Human betaherpesvirus 5, Davis
# [2] = Cytotoxicity against HEL; assay type: cell-based; conditions: human, HEL cells
# Human alphaherpesvirus 3 [3] = assay: Antiviral activity against thymidine kinase-positive Human herpesvirus 3 infected in HEL cells assessed as inhibition of viral plaque formation; assay type: functional, organism-based; conditions: Human alphaherpesvirus 3, HEL
# Human alphaherpesvirus 3 [4] = assay: Antiviral activity against thymidine kinase-deficient Human herpesvirus 3 infected in HEL cells assessed as inhibition of viral plaque formation; assay type: functional, organism-based; conditions: Human alphaherpesvirus 3, HEL
# Aspergillus niger = assay: Antimicrobial activity against Aspergillus niger after 7 days by serial dilution method; assay type: functional
# [5] = tested on: Human immunodeficiency virus 1; assay: Antiviral activity against Human immunodeficiency virus 1 IIIB infected human MT4 cells assessed as inhibition of virus-induced cytopathic effect after 4 days by MTT assay; assay type: functional, organism-based; conditions: MT4, 96 h
# Escherichia coli = assay: Antimicrobial activity against Escherichia coli after 24 hr by serial dilution method; assay type: functional
# Human betaherpesvirus 5 [6] = assay: Antiviral activity against Human herpesvirus 5 strain AD169 infected human HEL cells assessed as reduction in the virus plaque formation; assay type: functional, organism-based; conditions: Human betaherpesvirus 5, AD169, HEL
# Staphylococcus aureus = assay: Antimicrobial activity against Staphylococcus aureus after 24 hr by serial dilution method; assay type: functional
# [7] = Cytotoxicity against HEL assessed as minimum concentration required to cause morphological changes; assay type: cell-based; conditions: human, HEL cells
# [8] = Octanol-water partition coefficient, log P of the compound; assay type: physicochemical
# [9] = tested on: Human immunodeficiency virus 2; assay: Antiviral activity against Human immunodeficiency virus type 2 (ISOLATE ROD) infected human MT4 cells assessed as inhibition of virus-induced cytopathic effect after 4 days by MTT assay; assay type: functional, organism-based; conditions: Human immunodeficiency virus 2, ISOLATE ROD, MT4, 96 h
# Bacillus subtilis = assay: Antimicrobial activity against Bacillus subtilis after 24 hr by serial dilution method; assay type: functional
# [10] = Cytotoxicity against Homo sapiens (human) MT4 cells after 4 days by MTT assay; assay type: cell-based
EC50 (Human betaherpesvirus 5 [1]) [µg/mL],EC50 (Human alphaherpesvirus 3 [3]) [µg/mL],EC50 (Human alphaherpesvirus 3 [4]) [µg/mL],EC50 (Human betaherpesvirus 5 [6]) [µg/mL],logP [8],SMILES,-logMIC (Candida albicans),CC50 [2] [µg/mL],-logMIC (Aspergillus niger),EC50 [5] [µg/mL],-logMIC (Escherichia coli),-logMIC (Staphylococcus aureus),MCC [7] [µg/mL],EC50 [9] [µg/mL],-logMIC (Bacillus subtilis),CC50 at 96 h [10] [µg/mL]
> 20,> 20,> 20,> 20,4.02,O=C(COc1cccc2ccccc12)N/N=C/c1ccccc1,0.78,64.5,0.78,> 96.6,0.78,0.78,100,> 96.6,0.78,≥ 96.6
> 4,> 0.8,> 0.8,> 4,3.73,O=C(COc1cccc2ccccc12)N/N=C/c1ccccc1O,1.41,3.57,1.11,> 5.19,1.41,1.71,20,> 5.19,1.11,5.19
> 20,9.2,16.2,> 20,3.73,O=C(COc1cccc2ccccc12)N/N=C/c1cccc(O)c1,1.41,62.7,1.41,> 32.6,1.41,1.71,100,> 32.6,1.11,32.6
> 4,9.6,10.5,> 4,3.73,O=C(COc1cccc2ccccc12)N/N=C/c1ccc(O)cc1,1.71,60.6,1.11,> 26.5,1.41,1.71,20,> 26.5,1.11,26.5
> 4,> 4,> 4,> 4,3.77,COc1ccc(/C=N/NC(=O)COc2cccc3ccccc23)cc1,0.82,100,0.82,> 76.9,0.82,0.82,20,> 76.9,0.82,76.9
> 20,> 4,> 20,> 4,3.51,COc1ccc(OC)c(/C=N/NC(=O)COc2cccc3ccccc23)c1,1.46,56.9,1.46,> 19.2,1.46,1.16,≥ 20,> 19.2,1.16,19.2
> 20,> 4,> 20,> 4,3.51,COc1ccc(/C=N/NC(=O)COc2cccc3ccccc23)cc1OC,1.46,52.6,1.46,> 14.6,1.46,1.46,≥ 20,> 14.6,1.16,14.7
> 20,12.5,17.4,> 4,3.26,COc1cc(/C=N/NC(=O)COc2cccc3ccccc23)cc(OC)c1OC,1.5,47.9,1.5,> 13.4,1.5,1.8,≥ 20,> 13.4,1.5,13.4
> 20,13.8,20,> 20,3.48,COc1ccc(/C=N/NC(=O)COc2cccc3ccccc23)cc1O,1.15,27.7,1.15,> 7.05,1.45,1.15,100,> 7.05,1.45,7.05
> 20,> 20,> 20,> 20,4.54,O=C(COc1cccc2ccccc12)N/N=C/c1ccccc1Cl,0.83,62.7,0.83,> 56.2,0.83,1.13,100,> 56.2,0.83,56.2
> 20,> 100,> 100,> 20,4.54,O=C(COc1cccc2ccccc12)N/N=C/c1cccc(Cl)c1,0.53,58.6,0.53,> 89.9,0.53,0.83,100,> 89.9,0.53,89.9
> 20,> 100,> 100,> 20,4.54,O=C(COc1cccc2ccccc12)N/N=C/c1ccc(Cl)cc1,0.53,100,0.53,> 87.6,0.53,1.43,100,> 87.6,0.53,87.6
> 20,> 4,> 4,> 4,4.81,O=C(COc1cccc2ccccc12)N/N=C/c1ccccc1Br,0.88,100,0.88,> 11.4,0.88,1.19,≥ 20,> 11.4,0.88,11.4
> 20,> 20,> 20,> 20,4.81,O=C(COc1cccc2ccccc12)N/N=C/c1cccc(Br)c1,0.58,48.6,0.58,> 87.4,0.58,1.79,100,> 87.4,0.58,87.4
> 100,> 100,> 100,> 100,4.81,O=C(COc1cccc2ccccc12)N/N=C/c1ccc(Br)cc1,0.58,100,0.58,> 106,0.58,0.58,> 100,> 106,0.58,106
> 20,> 20,> 20,> 20,4.16,O=C(COc1cccc2ccccc12)N/N=C/c1ccc(F)cc1,0.81,71.6,0.81,> 65,1.41,1.41,100,> 65,1.11,65
> 4,> 4,> 4,> 4,3.97,O=C(COc1cccc2ccccc12)N/N=C/c1ccccc1[N+](=O)[O-],1.45,100,1.45,> 12.2,1.45,1.45,20,> 12.2,1.14,12.2
> 20,> 4,> 4,> 4,3.97,O=C(COc1cccc2ccccc12)N/N=C/c1cccc([N+](=O)[O-])c1,1.45,61.2,0.84,> 12.1,1.45,1.14,≥ 20,> 12.1,1.14,12.1
> 4,> 4,> 4,> 4,3.97,O=C(COc1cccc2ccccc12)N/N=C/c1ccc([N+](=O)[O-])cc1,1.45,14.2,0.54,> 87.8,0.84,0.84,20,> 87.8,1.14,87.8
